US20250273312A1, “SYSTEM AND METHOD FOR IMMUNOSUPPRESSANT DOSAGE” (THE REGENTS OF THE UNIVERSITY OF CALIFORNIA, priority 2021, published 2025)

How the values were obtained:
[1] = human, in vivo
Source text: (§1) The inclusion criteria for the study was (1) the subject was undergoing primary or secondary liver or simultaneous liver and kidney transplantation; (2) the subject or a surrogate was able to provide informed consent; and (3) the subject was at least 18 years of age. […] Sixty two (62) subjects were accepted into the trial.
Each of the 62 selected subjects were randomized, with half (31) assigned to a control group and the other half (31) assigned to a phenotypic personalized medicine (PPM) group. The subjects were blinded to group assignments; the clinical team was not blinded. […] The SOC dosing utilized a combination of dose titration and a subjective determination by a clinician. The subjective determination relied on patient weight, age, muscle mass, race/ethnicity, frailty, diet, concomitant medication, and other factors to select an initial dose for the next twenty-four hours. The patient's response to this dose is then taken into consideration for determining the next day's dose recommendation. This determination was repeated each day until the patient was able to be released from the hospital.
After the third day, the Control group continued with the standard-of-care procedure while the PPM group subjects were given dosages calculated by the PPM prediction model, shown in the Function below. […]

[2] = Same clinical trial: clinical outcomes (length of stay, AST normalization, neurotoxicity); type: in vivo, human
Source text: as §1
Each of the 62 selected subjects were randomized, with half (31) assigned to a control group and the other half (31) assigned to a phenotypic personalized medicine (PPM) group. The subjects were blinded to group assignments; the clinical team was not blinded. The patients in the PPM group were given tacrolimus dosages based on the present dosage calculation system and patients of the Control group were given tacrolimus dosages based on standard-of-care (SOC) dosing. The SOC dosing utilized a combination of dose titration and a subjective determination by a clinician. The subjective determination relied on patient weight, age, muscle mass, race/ethnicity, frailty, diet, concomitant medication, and other factors to select an initial dose for the next twenty-four hours. The patient's response to this dose is then taken into consideration for determining the next day's dose recommendation. This determination was repeated each day until the patient was able to be released from the hospital.
Tacrolimus dosage was discontinued for one patient in each of the PPM group and the Control group. […] As this would affect dosing accuracy and the study outcomes, this patient was excluded from analysis. One patient assigned to the Control group refused multiple tacrolimus doses in the post-operative period and was therefore excluded from analysis. The remaining 56 (29 Control group and 27 PPM group) patients completed the study and were discharged from the hospital after transplantation.
Following liver transplantation, all study patients were started on standard-of-care medication regimen: a three-drug combination of tacrolimus, a corticosteroid, and mycophenolate. Blood tacrolimus trough levels were measured daily in the morning until patient discharge. […] After the third day, the Control group continued with the standard-of-care procedure while the PPM group subjects were given dosages calculated by the PPM prediction model, shown in the Function below.
The primary outcome measure was percent days with large (>2 ng/ml) deviations from target range. Secondary outcomes included percent days outside-of-target range, ratio of area-under-the-curve outside-of-target-range to total days, graft rejection, graft failure, death, infections, length of stay, nephrotoxicity episodes, or neurotoxicity episodes. Comparisons between the two groups were performed using either the two-tailed Welch's t-test or Student's t-test. For nonparametric (non-normal) distributions, a two-tailed Levene's test was used to compare variances and a two-tailed Wilcoxon Rank Sum test was used to compare medians. Logistic regression was used to dichotomize the length of stay after transplant and the percent days out of target range for comparison. Statistical analyses were performed on JMP Pro 16.1.0.

[3] = Average deviation between target (predicted) and measured tacrolimus serum level for dosing Functions 0, 1, 2; set-up: species or system human; conditions: unit assumed
Source text: Additionally, data from the clinical trial was utilized to determine the average deviations between a target (i.e., predicted) serum level and an actual (i.e., measured) serum level for the two PPM patients.
Where Function 0 is ST(DT, t)=x0(t)+x1(t)DT+x11(t)DT^2; Function 1 is [(D/S)T](N+1) day=[(D/S)T]N day; and Function 2 is [(D/S)T]next day=x0(t)+x1(t)[AST×(D/S)T]today+z11(t)[AST×(D/S)T] today. […] By incorporating the AST level the current system and methods can provide further improvement in achieving a target serum levels

decrease in the percentage of days with a large deviation from the target trough drug level [1]: 37% | reduction of the mean AUC outside of target range [1]: 30% | Average Deviation from Target Serum Level ([3]; Function 0, first row of Table 5 (one of the two PPM patients)): 2.9 ng/mL | Average Deviation from Target Serum Level ([3]; Function 0, second row of Table 5 (one of the two PPM patients)): 1.6 ng/mL | Average Deviation from Target Serum Level ([3]; Function 1, first row of Table 5): 2 ng/mL | Average Deviation from Target Serum Level ([3]; Function 1, second row of Table 5): 1.2 ng/mL | Average Deviation from Target Serum Level ([3]; Function 2, first row of Table 5): 1.4 ng/mL | Average Deviation from Target Serum Level ([3]; Function 2, second row of Table 5): 0.6 ng/mL
SMILES: C=CC[C@@H]1/C=C(\C)C[C@H](C)C[C@H](OC)[C@H]2O[C@@](O)(C(=O)C(=O)N3CCCC[C@H]3C(=O)O[C@H](/C(C)=C/[C@@H]3CC[C@@H](O)[C@H](OC)C3)[C@H](C)[C@@H](O)CC1=O)[C@H](C)C[C@@H]2OC [tacrolimus]
days after liver transplant until release from hospital ([2]; Control Patient, conventional titration): 19 days | average hospital stay ([2]; Control group): 15.87 days | day by which 90% of the patients were discharged ([2]; Control group): 25 days | share of group with post-transplant length of stay two weeks or more ([2]; Control group): 65.5% | median days to normalize AST levels (DAST) ([2]; Control group (Q1-Q3 6.25-11.75)): 8.5 days | median length-of-stay (LOS) ([2]; Control group (Q1-Q3 10.5-20.5)): 15 days | average hospital stay ([2]; Control group, two patients with the longest stay removed): 14.36 days | days after liver transplant until release from hospital ([2]; First PPM Patient): 12 days | average hospital stay ([2]; PPM group): 10.42 days | day by which 90% of the patients were discharged ([2]; PPM group): 15 days | share of group with post-transplant length of stay two weeks or more ([2]; PPM group (5/27)): 18.5% | median days to normalize AST levels (DAST) ([2]; PPM group (Q1-Q3 4-8)): 6 days | median length-of-stay (LOS) ([2]; PPM group (Q1-Q3 8-12)): 10 days | reduction in the post-transplant length of stay ([2]; PPM group versus Control group): more than 30% | average hospital stay ([2]; PPM group, two patients with the longest stay removed): 8 days | day of release from hospital ([2]; Second PPM Patient): 11 days | neurotoxicity leading to discontinuation of tacrolimus ([2]; one patient in each of the PPM group and the Control group, evidenced by brain imaging): neurotoxicity within the first week after transplant that was deemed not dose related
